The source of these data is ChEMBL document CHEMBL1909294, “Translating clinical findings into knowledge in drug safety evaluation--drug induced liver injury prediction system (DILIps)” (PLoS Comput Biol, 2011).

In series [1] the test system is Hepatotoxicity.
The subject of series [2] is Hepatotoxicity. This is another data set of the same source.
Series [3] has as its system Hepatotoxicity. This is another data set of the same source.
The subject of series [4] is Hepatotoxicity. The source holds these as a separate data set.
Series [5] deals with Hepatotoxicity. The source holds these as a separate data set.
Series [6] has as its system Hepatotoxicity. The source holds these as a separate data set.
Series [7] relates to Hepatotoxicity. The source holds these as a separate data set.
The test system of series [8] is Hepatotoxicity. This is another data set of the same source.
Series [9] has as its system Hepatotoxicity. This is another data set of the same source.
For series [10], the system named is Hepatotoxicity. This is another data set of the same source.
The subject of series [11] is Hepatotoxicity. This is another data set of the same source.
Series [12] deals with Hepatotoxicity. This is another data set of the same source.
Series [13] deals with Hepatotoxicity. The source holds these as a separate data set.
Series [14] deals with Hepatotoxicity. This is another data set of the same source.
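Throughout, for HepSE Combined Scores: combined hepatic side effect score as listed in the training data of the Drug Induced Liver Injury Prediction System (DILIps).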
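Throughout, for HepSE bilirubinemia: bilirubinemia hepatic side effect score drawn from the DILIps training data, a prediction system for drug-induced liver injury; call rule not given here.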
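Throughout, for HepSE cholecystitis: Cholecystitis-related hepatic side effect score drawn from the DILIps (drug-induced liver injury prediction) training data set; call rule not given here.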
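Throughout, for HepSE cholelithiasis: hepatic side effect score for cholelithiasis, drawn from the DILIps training data for predicting drug-induced liver injury; call rule not given here.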
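Throughout, for HepSE cirrhosis: cirrhosis hepatic side effect score taken from the DILIps (drug-induced liver injury prediction) training set; call rule not given here.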
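Throughout, for HepSE elevated liver function tests: hepatic side effect score for raised liver function tests, as recorded in the DILIps training set used for predicting drug-induced liver injury.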
Throughout, for HepSE hepatic failure: call rule not given here.
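Throughout, for HepSE hepatic necrosis: score of hepatic side effects for hepatic necrosis, drawn from the training data of DILIps, a prediction system for drug-induced liver injury; call rule not given here.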
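Throughout, for HepSE hepatitis: Hepatitis-related hepatic side effect score taken from the training data of DILIps, a prediction system for drug-induced liver injury; call rule not given here.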
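Throughout, for HepSE hepatomegaly: hepatic side effect score for hepatomegaly, taken from the training set of the DILIps drug-induced liver injury prediction system; call rule not given here.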
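Throughout, for HepSE jaundice: Jaundice-related hepatic side-effect score drawn from the training data of the DILIps (drug-induced liver injury prediction system); call rule not given here.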
Throughout, for HepSE liver disease: call rule not given here.
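Throughout, for HepSE liver fatty: hepatic side effect score for fatty liver, taken from the DILIps training set for predicting drug-induced liver injury; call rule not given here.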
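Throughout, for HepSE liver function tests abnormal: hepatic side effect score taken from the DILIps (drug-induced liver injury prediction system) training data, here covering abnormal liver function test findings.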

As to `CC(C)Cc1ccc(C(C)C(=O)O)cc1` (stereo not given) [IBUPROFEN], in series [1], the “HepSE_elevated liver function tests” value is given as 0. For the same compound, the HepSE_hepatomegaly in series [2] is 0. This compound also registered a HepSE_hepatic failure in series [3] of 1. Moreover, the HepSE_cholecystitis in [4] was 0. This compound also showed a HepSE_jaundice in series [5] of 1. This compound also displayed a HepSE_liver fatty in series [6] of 0. In addition, the HepSE_hepatic necrosis in series [7] was 1. The same compound came in with a HepSE_hepatitis in series [8] of 1. In addition, in [9], the “HepSE_liver function tests abnormal” value came to 1. Besides, the HepSE_liver disease in series [10] turned out to be 0. For the same compound, the “HepSE_Combined Scores” value in series [11] came out at 5. In series [12], this compound had a HepSE_bilirubinemia of 0. This compound also showed a HepSE_cholelithiasis in [13] of 0. This compound also registered a HepSE_cirrhosis in series [14] of 0.

For `CO[C@H]1/C=C/O[C@@]2(C)Oc3c(C)c(O)c4c(O)c(c5c(nc6cc(C)ccn65)c4c3C2=O)NC(=O)/C(C)=C\C=C\[C@H](C)[C@H](O)[C@@H](C)[C@@H](O)[C@@H](C)[C@H](OC(C)=O)[C@@H]1C` [RIFAXIMIN], the “HepSE_elevated liver function tests” value in series [1] is recorded as 0. The same compound yielded a HepSE_hepatomegaly in series [2] of 0. The compound also showed a HepSE_hepatic failure in [3] of 0. The compound further gave a HepSE_cholecystitis in series [4] of 0. The HepSE_jaundice in [5] is 0. This compound registered a HepSE_liver fatty in series [6] of 0. In series [7], this compound gave a HepSE_hepatic necrosis of 0. The same compound displayed a HepSE_hepatitis in series [8] of 0. In [9], the “HepSE_liver function tests abnormal” value worked out at 0. In series [10], this compound gave a HepSE_liver disease of 0. In series [11], the “HepSE_Combined Scores” value came to 0. In series [12], the HepSE_bilirubinemia is 0. Further, the HepSE_cholelithiasis in series [13] is recorded as 0. For the same compound, the HepSE_cirrhosis in [14] is 0.

In the case of CARBOPLATIN, the “HepSE_elevated liver function tests” value in [1] is given as 0. This compound also came in with a HepSE_hepatomegaly in [2] of 0. For the same compound, in series [3], the HepSE_hepatic failure amounted to 0. Also, the HepSE_cholecystitis in [4] is recorded as 0. The compound also displayed a HepSE_jaundice in series [5] of 0. In series [6], this compound returned a HepSE_liver fatty of 0. In series [7], this compound returned a HepSE_hepatic necrosis of 0. Moreover, the HepSE_hepatitis in series [8] stood at 0. In addition, the “HepSE_liver function tests abnormal” value in series [9] is 1. In addition, in [10], the HepSE_liver disease turned out to be 0. Also, the “HepSE_Combined Scores” value in series [11] amounted to 1. Also, the HepSE_bilirubinemia in series [12] came to 0. Besides, the HepSE_cholelithiasis in series [13] was determined as 0. Besides, the HepSE_cirrhosis in [14] was 0.

Take `CC(C)(N)Cc1ccccc1` [PHENTERMINE]: the “HepSE_elevated liver function tests” value in series [1] was 0. The HepSE_hepatomegaly in series [2] turned out to be 0. The HepSE_hepatic failure in series [3] stood at 0. In addition, the HepSE_cholecystitis in series [4] stood at 0. This compound registered a HepSE_jaundice in series [5] of 0. For the same compound, the HepSE_liver fatty in [6] is recorded as 0. In [7], this compound displayed a HepSE_hepatic necrosis of 0. Besides, the HepSE_hepatitis in series [8] is 0. In addition, the “HepSE_liver function tests abnormal” value in series [9] is reported as 0. In series [10], the HepSE_liver disease amounted to 0. Further, the “HepSE_Combined Scores” value in [11] was determined as 0. The compound also yielded a HepSE_bilirubinemia in series [12] of 0. In addition, the HepSE_cholelithiasis in [13] was 0. For the same compound, the HepSE_cirrhosis in series [14] was determined as 0.

In the case of `C#CCN(C)[C@H](C)Cc1ccccc1` [SELEGILINE], in [1], the “HepSE_elevated liver function tests” value is reported as 0. In series [2], the HepSE_hepatomegaly amounted to 0. In series [3], this compound yielded a HepSE_hepatic failure of 0. Also, in [4], the HepSE_cholecystitis is on record as 1. For the same compound, in series [5], the HepSE_jaundice was 0. Also, in [6], the HepSE_liver fatty was determined as 0. The compound further displayed a HepSE_hepatic necrosis in series [7] of 0. In series [8], this compound had a HepSE_hepatitis of 1. Besides, the “HepSE_liver function tests abnormal” value in series [9] is reported as 1. This compound showed a HepSE_liver disease in [10] of 0. In addition, the “HepSE_Combined Scores” value in series [11] worked out at 5. In series [12], the HepSE_bilirubinemia came to 1. Besides, in series [13], the HepSE_cholelithiasis was found to be 1. This compound also yielded a HepSE_cirrhosis in series [14] of 0.
